Laboratory results published in patent US8686050B2, “Diglycidic ether derivative therapeutics and methods for their use” (British Columbia Cancer Agency Branch, priority 2008, dated 2014).
“Also recorded” adds a separate entry of the source. Where a name gives a salt, the structure may show the parent alone.

Key:
[1] = target: T1, glucocorticoid receptor (GR) (Homo sapiens, UniProt P04150); experiment: GRE-luciferase reporter, steroid receptor specificity; format: cell-based; settings: LNCaP cells transfected with GR, steroid 10 nM; 185-9-2 5 μg/ml
T1 construct: Cells were co-transfected with expression plasmids for full-length hGR, PRβ and the relative reporter; expressed in transfected cells; host or cells: LNCaP
T1 sequence (P04150 1-777): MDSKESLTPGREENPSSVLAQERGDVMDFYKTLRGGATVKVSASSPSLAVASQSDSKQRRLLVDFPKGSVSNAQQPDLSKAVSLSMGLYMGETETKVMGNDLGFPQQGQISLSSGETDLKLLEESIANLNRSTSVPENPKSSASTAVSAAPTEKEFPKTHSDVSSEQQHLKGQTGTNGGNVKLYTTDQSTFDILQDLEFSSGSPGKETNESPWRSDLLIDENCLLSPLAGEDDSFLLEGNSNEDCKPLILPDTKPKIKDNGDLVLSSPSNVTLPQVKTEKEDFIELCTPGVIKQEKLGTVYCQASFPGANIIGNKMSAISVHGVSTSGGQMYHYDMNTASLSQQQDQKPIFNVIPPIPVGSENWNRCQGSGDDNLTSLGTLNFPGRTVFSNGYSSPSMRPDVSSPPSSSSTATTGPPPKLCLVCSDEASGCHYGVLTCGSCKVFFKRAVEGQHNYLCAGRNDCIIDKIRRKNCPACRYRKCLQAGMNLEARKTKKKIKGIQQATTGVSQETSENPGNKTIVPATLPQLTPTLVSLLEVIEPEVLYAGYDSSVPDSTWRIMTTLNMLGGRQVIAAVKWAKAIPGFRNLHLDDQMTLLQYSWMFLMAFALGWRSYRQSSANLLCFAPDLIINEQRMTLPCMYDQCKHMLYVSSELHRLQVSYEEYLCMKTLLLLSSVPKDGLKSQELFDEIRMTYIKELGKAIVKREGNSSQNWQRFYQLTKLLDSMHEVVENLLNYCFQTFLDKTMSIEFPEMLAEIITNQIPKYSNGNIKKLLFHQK
Description: Sequence similarities of amino acids in the AR with related human steroid receptors PR and glucocorticoid receptor (GR) are significant in some domains such as the DBD. The AR NTD shares less than 15% homology with the PR and GR, but these receptors interact with some of the same proteins (eg., SRC-1 and CBP). […] Cells were co-transfected with expression plasmids for full-length hGR, PRβ and the relative reporter (i.e., pGR-Luc or PRE-E1b-Luc reporters). Cells were then treated with ethanol vehicle, dexamethasone (GR), 4-pregnene-3,20 dione (progesterone) (PR) followed by measurement of luciferase activity. […] Some antiandrogens currently used in the clinic have progestational and glucocorticoidal activities. In adult males, the role of the PR activity is unclear.

LNCaP xenografts = experiment: LNCaP subcutaneous xenografts in castrated mice; format: in vivo, NOD-SCID male mice
Description: Six to eight-week old male athymic SCID mice were inoculated subcutaneously in the flank region via a 27-gauge needle with a 150 μl suspension of LNCaP or PC3 human prostate cancer cells (1×10^6 cells). The inoculations took place while the animal was under isofluorane anaesthesia. The tumor take rate is approximately 75%. Mice bearing tumors of 100 mm^3 were randomly assigned to treatment groups. Castration was performed as described below. Tumor volume (formula: L×W×H×0.5236) was measured in mice bearing LNCaP subcutaneous tumors that became palpable or visible and at least 40 mm^3. The animals were monitored daily and tumors were measured every 5 days.

VEGF = VEGF staining of harvested LNCaP xenografts; format: in vivo, mice; settings: harvested at day 25 from castrated hosts
Description: Angiogenesis in prostate cancer is predominantly dependent upon vascular endothelial growth factor (VEGF). Testosterone is a potent inducer of VEGF in the prostate (Häggström et al 1999 J Urol. 161, 1620-1625) and re-expression of VEGF in androgen independent tumours is consistent with the re-expression of androgen-regulated genes (Gregory et al 1998 Cancer Res. 58, 5718-5724). Expression of VEGF is associated with androgen independence (Mitsiades et al 2001 Expert Opin Investig Drugs. 10, 1099-1115) and aggressive metastatic disease (Harper et al 1998 J Pathol. 186, 169-177; Balbay et al 1999 Clin Cancer Res. 5, 783-789; Melnyk et al 1999 J Urol. 161, 960-963).

**Q.** Which results are given for `CC(C)(c1ccc(OCC(O)CO)cc1)c1ccc(OCC(O)CCl)cc1` (stereo not drawn) [185-9-2, BADGE.HCL.H2O]?
**A.** GRE-luciferase activity in response to ligand [1]: did NOT inhibit; also recorded: does NOT inhibit; size of LNCaP xenograft tumors, intratumoral injection (LNCaP xenografts; castrated mice, I.T. every 5 days, 20 mg/kg body weight, 20 mg/kg): reduced the size of the tumors; also recorded: significantly reduce the tumors; size of LNCaP xenograft tumors, intravenous injection (LNCaP xenografts; castrated mice, I.V. 50 mg/kg body weight every other day): reduced the size of the tumors; LNCaP tumor volume at the duration (end) of the experiment, intratumoral (LNCaP xenografts; castrated mice, i.t. every 5 days, five doses): 35.4±15.7 mm^3; LNCaP tumor volume within 2 weeks of i.v. injection (LNCaP xenografts; castrated mice, i.v. 50 mg/kg every other day): 64.3±29.6 mm^3; apoptosis in xenografts (TUNEL) (LNCaP xenografts; intravenous delivery, IHC): increased apoptosis; proliferation in xenografts (Ki67) (LNCaP xenografts; intravenous delivery, IHC): reduced proliferation; VEGF protein in LNCaP xenografts (VEGF): decreased levels of vascular endothelial growth factor (VEGF) protein; VEGF protein in LNCaP xenografts (VEGF; listed as PNG01-185-017-9-2): inhibited the expression of VEGF
